Assay results: ChEMBL document CHEMBL3507680, “University of Dundee, Gates Library screen for HepG2 cell viability”

Assay: Human HepG2 cell viability assay in 384 well format
Format: toxicity, cell-based
Set-up: dose 125 nL, time 70.5 hour; concentration not given beside the values
Conditions: HepG2 cells, read-out: Inhibition

| Compound | cytotoxicity at 70.5 h [%] |
| --- | --- |
| O=C(Nc1cccc(OCC(F)F)n1)c1ccncc1F | -6.41 |
| CC(CO)NC(=O)c1ccc(NCc2cc(C#N)ccc2F)cc1 (centres undefined) | -0.552 |
| O=C(CN(CC1CCC1)CC(F)(F)F)N1CCOCC1 | -5.14 |
| Cc1nc(CSCc2ccc(OCC(F)(F)F)nc2)no1 | -7.83 |
| CCOc1cccc(CSC(C)c2nc(C)no2)n1 (centres undefined) | -3.8 |
| Cc1ccc(S(=O)(=O)N(CCO)C2CC2)cc1N(C)C | 2.04 |
| COc1c(C)cnc(CN2CCCC2c2noc(C)n2)c1C (centres undefined) | 3.95 |
| CCn1cc(CNCCNc2ncc(Cl)cc2Cl)cn1 | 10.4 |
| CCCNC(=O)c1[nH]nc(C2CC2)c1Br | -5.95 |
| COC(=O)c1ccc(OCCn2cnc(C#N)n2)cc1 | -24.3 |
| N#Cc1ccc(CN(CC(N)=O)Cc2cccc(F)c2)cc1 | -2.99 |
| Cc1nc(CNC(=O)Nc2c(C)n[nH]c2C)cs1 | -9.25 |
| CN(CCc1cccc2ccccc12)Cc1nc(N)nc(N(C)C)n1 | 28.3 |
| CC(C)N(CC(N)=O)C(=O)CCC(=O)c1ccc(F)cc1F | -6.11 |
| Cc1cc(Br)ccc1C(=O)Nc1c(C(N)=O)n[nH]c1C | -9.24 |
| Cc1ccc(F)c(C(=O)Nc2c(C(N)=O)n[nH]c2C)c1 | -10.1 |
| Cc1cccc(C(=O)Nc2c(C(N)=O)n[nH]c2C)c1C | -5.24 |
| Cc1nnc(C(C)NCC2(c3c(F)cccc3F)CCCC2)o1 (centres undefined) | -2.47 |
| Cc1ccc(C(=O)NCC2(O)CCOCC2)cc1Br | -7.13 |
| CN(C)c1ccc(C(=O)NCC2(O)CCOCC2)cc1 | -8.78 |

| Compound | cytotoxicity at 70.5 h [%] |
| --- | --- |
| Cc1nnc(NCC2(c3ccc(Cl)cc3Cl)CCOCC2)c(C#N)c1C | 13.2 |
| Cc1nnc(NCC2(c3ccccc3)CC2)c(C#N)c1C | -0.882 |
| Cc1ccccc1C1(CNc2nnc(C)c(C)c2C#N)CCOCC1 | -6.42 |
| Cn1cc(Br)c(=O)c(NS(=O)(=O)c2ccc(F)cc2)c1 | 16.4 |
| Clc1ccc(OCCN2CCN(CCn3cncn3)CC2)cc1 | 13.2 |
| CCc1nc(CC(=O)Nc2cnn(CC3CCCO3)c2)cs1 (centres undefined) | -7.79 |
| c1ccc2oc(NC3CCCN(Cc4noc(C5CC5)n4)C3)nc2c1 (centres undefined) | -10.4 |
| O=C(CCc1cccc(F)c1F)N1CCN(Cc2ccco2)CC1 | -8.06 |
| Cc1nn(C)c(C)c1NC(=O)CN1CCc2c(nc(C3CC3)n2C)C1 | 12.4 |
| CC(=O)NCCc1ccc(S(=O)(=O)N(CC(C)C)C(C)C)s1 | 33 |
| Cc1cnc(CNc2c(F)cccc2-n2cccn2)o1 | 7.74 |
| CCOc1ccc(CN(C)C(=O)NC(C)c2nncn2C)cc1 (centres undefined) | 8.83 |
| CN(C(=O)Cn1nc(-c2ccc(F)cc2)oc1=O)C1CCS(=O)(=O)C1 (centres undefined) | 12.8 |
| COC(=O)c1sccc1NC(=O)C1CCCN1C(=O)c1ccco1 (centres undefined) | 16.3 |
| Cc1cc(NC(=O)NCCc2ccsc2)n(C)n1 | -3.08 |
| Cc1cc(CN(C)C(=O)NC(C)c2nncn2C)no1 (centres undefined) | -5.64 |
| CC(=O)N1CCC(C(=O)NCCN2CCC(C)CC2)CC1 | -2.37 |
| CC(=O)N1CCC(C(=O)NCCN2CCCCC2)CC1 | -0.67 |
| CS(=O)(=O)NCCNC(=O)C1(c2cccc(Cl)c2)CC1 | -4.01 |
| NC(=O)CN1CCCN(C(=O)c2ccn(-c3cccc(F)c3)n2)CC1 | -7.11 |

| Compound | cytotoxicity at 70.5 h [%] |
| --- | --- |
| Cc1cc(C)n(CC(=O)N2CCC(c3nc(C)no3)CC2)n1 | 2.07 |
| CC(C)CNC(=O)Nc1ccc(CN2CCOC2=O)cc1 | -13.4 |
| CC(CNC(=O)Nc1ccc(N(C)C)nc1)Cn1cccn1 (centres undefined) | -7.16 |
| COCCN(Cc1ccc(F)cc1Cl)C(=O)c1cccc[n+]1[O-] | -0.551 |
| O=C(CCc1ccccc1)Nc1ncccc1OC(F)F | -0.101 |
| Cc1ncsc1C(=O)N1CCCC(c2noc(C(C)C)n2)C1 (centres undefined) | 0.861 |
| Cn1cnc(S(=O)(=O)N2CCN(Cc3ccco3)CC2)c1Cl | 2.09 |
| Cc1ccc(CC(=O)N2CCOC(c3nc(C(C)(C)C)n[nH]3)C2)cn1 (centres undefined) | -4.13 |
| CS(=O)(=O)CCNC(=O)C1(c2cccc(Cl)c2)CCCCC1 | 17.7 |
| COc1ccccc1OCC(=O)Nc1ncccc1Cl | -0.838 |
| CCC(C)N(C)S(=O)(=O)c1ccc(CCNC(C)=O)s1 (centres undefined) | -7 |
| CCc1nnc2n1CCN(Cc1csc(-c3ccsc3)n1)C2 | -8.3 |
| CN(C)CCN(Cc1cccc(C(F)(F)F)c1)C(=O)c1cc[nH]n1 | -3.41 |
| COCCN(Cc1ccc(F)cc1Cl)C(=O)c1ccncc1 | -6.63 |
| Cn1cc(-c2csc(CN3CCOCC3)n2)cn1 | -1.08 |
| O=C(NCCCn1cccn1)C1(c2ccc(Br)cc2)CC1 | -2.34 |
| O=C1NCCCCC1Sc1nnc(-c2cccnc2)n1C1CC1 (centres undefined) | -5.84 |
| CC(NC(=O)C1=NN(C)C(=O)CC1)c1ccc(Cl)cc1Cl (centres undefined) | -3.67 |
| Cc1nc(C(C)(C)NC(=O)Nc2ccccc2)no1 | 1.88 |
